{
  "source": "patent US12116343B2",
  "about": "“Inhibitors of APOL1 and methods of using same” (Vertex Pharmaceuticals Incorporated, priority 2020, dated 2024)",
  "molecular_target": "T1, APOL1 G1 Protein (Homo sapiens, UniProt O14791, I384M/S342G)",
  "T1 sequence (O14791 28-398 S342G/I384M)": "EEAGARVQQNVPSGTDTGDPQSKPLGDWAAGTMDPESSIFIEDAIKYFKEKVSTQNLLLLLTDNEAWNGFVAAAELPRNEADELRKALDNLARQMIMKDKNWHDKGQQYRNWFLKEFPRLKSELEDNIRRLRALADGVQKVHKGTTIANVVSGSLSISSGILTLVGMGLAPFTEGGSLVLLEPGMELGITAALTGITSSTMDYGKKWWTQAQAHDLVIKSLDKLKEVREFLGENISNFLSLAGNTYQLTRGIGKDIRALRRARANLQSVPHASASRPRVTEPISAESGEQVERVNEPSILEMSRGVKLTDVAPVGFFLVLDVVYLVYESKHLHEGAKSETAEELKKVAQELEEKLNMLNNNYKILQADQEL",
  "assay": "Trypanosoma brucei brucei lysis assay using APOL1 recombinant protein (AlamarBlue viability)",
  "assay_type": "cell-based",
  "settings": "Trypanosoma brucei brucei lysis, recombinant APOL1, AlamarBlue; read-out: Trypanosoma Assay (IC50)",
  "method_in_brief": "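Bloodstream-form T. b. brucei Lister 427 VSG 221, 120,000 parasites/well in phenol red-free, FBS-free medium, lysed by recombinant APOL1 G1 with compound (10-point dose response, 0.1% DMSO final). Viability read by AlamarBlue fluorescence against a parasite standard curve.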",
  "data": [
    {"smiles": "O=C(NC1(CO)CC1)[C@H]1C[C@H](c2c(-c3ccc(F)cc3)[nH]c3c(F)cc(F)cc32)C1", "note": "[Compound 47]", "values": [
      {"measurement": "IC50", "value": "< 250", "unit": "nM"}
    ]}
  ]
}
